How the values were obtained:
human GPR18 = molecular target: T1, human GPR18 (Homo sapiens, UniProt Q14330); assay: β-Arrestin recruitment assay (PathHunter) at GPR18; format: cell-based; conditions: for Human GPR18 % activation / Human GPR18 % inhibition: β-arrestin assay; for Human GPR18 % activation: percent in brackets beside EC50 >10 µM; for Human GPR18 % inhibition: percent in brackets beside IC50
T1 construct: β-galactosidase enzyme fragment (PathHunter complementation tag)
T1 sequence (Q14330 1-331): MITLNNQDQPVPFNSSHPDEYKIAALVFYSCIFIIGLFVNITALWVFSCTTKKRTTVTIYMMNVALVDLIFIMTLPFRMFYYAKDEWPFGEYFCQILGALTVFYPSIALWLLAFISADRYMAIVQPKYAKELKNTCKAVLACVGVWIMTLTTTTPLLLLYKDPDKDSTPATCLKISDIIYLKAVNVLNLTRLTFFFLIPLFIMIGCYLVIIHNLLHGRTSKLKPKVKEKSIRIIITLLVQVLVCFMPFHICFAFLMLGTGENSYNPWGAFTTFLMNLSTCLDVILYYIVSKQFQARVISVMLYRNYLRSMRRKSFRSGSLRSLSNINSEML
Protocol: (§1) Recruitment of β-arrestin to the respective receptor was detected by using β-galactosidase enzyme fragment complementation technology (β-arrestin PathHunter™ assay, DiscoverX, Fremont, CA, USA) as previously described. Data were obtained from three independent experiments, performed in duplicates. Data were analyzed using Graph Pad Prism Version 4.02 (San Diego, CA, USA).

CB2 receptor = CB2 receptor (Homo sapiens, UniProt P34972); assay: biochemical; format: binding; design: expressed in transfected cells; host or cells: CHO cells (membrane preparation); conditions: for Ki: versus 0.1 nM [3H]CP55,940, CHO cell membranes, mean ± SEM of three to five experiments, read-out: Ki ± SEM Human CB2; for CB2 selectivity Ki CB1/KiCB2: Table S1, selectivity index from Ki values
Chain of CB2 receptor (P34972 whole entry): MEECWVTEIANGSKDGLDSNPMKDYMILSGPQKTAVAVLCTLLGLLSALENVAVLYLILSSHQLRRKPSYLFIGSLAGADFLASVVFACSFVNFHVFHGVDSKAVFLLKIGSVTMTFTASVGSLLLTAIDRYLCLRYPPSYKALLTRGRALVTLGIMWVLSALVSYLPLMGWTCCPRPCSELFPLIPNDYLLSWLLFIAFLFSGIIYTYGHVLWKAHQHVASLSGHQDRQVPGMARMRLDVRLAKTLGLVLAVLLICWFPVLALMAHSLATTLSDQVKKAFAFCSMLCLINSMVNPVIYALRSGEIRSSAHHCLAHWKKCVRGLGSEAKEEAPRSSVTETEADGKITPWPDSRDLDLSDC

CB1 receptor [1] = molecular target: T2, CB1 receptor (Homo sapiens, UniProt P21554); assay: biochemical; format: binding; design: expressed in transfected cells; host or cells: CHO cells (membrane preparation); conditions: for CB1 selectivity Ki CB2/KiCB1: Table S1, selectivity index from Ki values; for Ki: versus 0.1 nM [3H]CP55,940, CHO cell membranes, mean ± SEM of three to five experiments, read-out: Ki ± SEM Human CB1; for fold higher Ki value at CB1 receptors after introduction of a quinoline: amide-linked group A, compared with naphthyl analogue (8 vs 10; 9 vs 11)
T2 sequence (P21554 whole entry): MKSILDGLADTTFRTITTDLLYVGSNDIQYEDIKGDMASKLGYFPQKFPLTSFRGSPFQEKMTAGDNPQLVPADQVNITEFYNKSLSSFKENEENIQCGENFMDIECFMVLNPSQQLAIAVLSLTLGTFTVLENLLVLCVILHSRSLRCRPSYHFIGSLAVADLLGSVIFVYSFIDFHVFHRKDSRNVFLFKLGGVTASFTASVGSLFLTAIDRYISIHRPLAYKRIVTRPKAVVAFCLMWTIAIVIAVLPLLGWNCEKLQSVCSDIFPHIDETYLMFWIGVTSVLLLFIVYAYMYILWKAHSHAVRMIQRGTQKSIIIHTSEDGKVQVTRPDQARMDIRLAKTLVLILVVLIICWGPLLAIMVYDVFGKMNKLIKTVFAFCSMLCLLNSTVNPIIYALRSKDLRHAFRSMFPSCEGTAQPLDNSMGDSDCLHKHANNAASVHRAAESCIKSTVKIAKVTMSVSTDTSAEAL

human GPR55 = molecular target: T3, human GPR55 (Homo sapiens, UniProt Q9Y2T6); assay: β-Arrestin recruitment assay (PathHunter) at GPR55; format: cell-based; conditions: for IC50: Human GPR55 IC50, β-arrestin assay, antagonist mode; for Human GPR55 % activation / Human GPR55 % inhibition: β-arrestin assay; for Human GPR55 % activation: percent in brackets beside EC50 >10 µM; for Human GPR55 % inhibition: percent in brackets beside IC50
T3 construct: β-galactosidase enzyme fragment (PathHunter complementation tag)
T3 sequence (Q9Y2T6 whole entry, the tested form may be a part): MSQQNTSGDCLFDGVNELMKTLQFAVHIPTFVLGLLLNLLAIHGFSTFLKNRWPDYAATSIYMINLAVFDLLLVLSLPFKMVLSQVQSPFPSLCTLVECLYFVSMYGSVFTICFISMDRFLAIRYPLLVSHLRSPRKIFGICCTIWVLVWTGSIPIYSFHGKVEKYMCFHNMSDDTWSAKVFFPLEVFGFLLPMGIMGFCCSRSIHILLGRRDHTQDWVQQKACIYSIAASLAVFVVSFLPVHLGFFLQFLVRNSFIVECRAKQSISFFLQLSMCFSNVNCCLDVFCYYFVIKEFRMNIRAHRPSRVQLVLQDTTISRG
Protocol: as §1

CB1 receptor [2] = molecular target: T2, CB1 receptor; assay: cell-based; format: cell-based; design: expressed in transfected cells; host or cells: CHO cells; conditions: cAMP accumulation, forskolin 10 µM; test concentration 1 µM or 10 µM; normalized to CP55,940

Row | Compound | EC50 (human GPR18) | IC50 (human GPR18) | Human GPR18 % activation (human GPR18) | Human GPR18 % inhibition (human GPR18) | Ki (CB2 receptor) | CB1 selectivity Ki CB2/KiCB1 (CB1 receptor [1]) | Ki (CB1 receptor [1]) | EC50 (human GPR55) | IC50 (human GPR55) | Human GPR55 % activation (human GPR55) | Human GPR55 % inhibition (human GPR55) | CB2 selectivity Ki CB1/KiCB2 (CB2 receptor) | fold higher Ki value at CB1 receptors after introduction of a quinoline (CB1 receptor [1]) | efficacy at CB1 receptor (in words) (CB1 receptor [2])
1 | O=C(Nc1cccc2ccccc12)c1cn(CCCCCF)c2ccccc12 [Compound 5, 5F-NNEI] | > 10 µM | > 10 µM | −3% | −17% | 0.0134 ± 0.0016 µM | 3.6 | 0.00369 ± 0.00197 µM | > 10 µM | > 10 µM | 25% | −8% | – | – | –
2 | O=C(Nc1cccc2ccccc12)c1cn(CCCCCCl)c2ccccc12 [Compound 6, 5Cl-NNEI] | > 10 µM | > 10 µM | 1% | −13% | 0.0328 ± 0.0108 µM | 3.2 | 0.0102 ± 0.0022 µM | > 10 µM | > 10 µM | 28% | 5% | – | – | –
3 | O=C(Nc1cccc2ccccc12)c1nn(CCCCCF)c2ccccc12 [Compound 9, 5F-MN-18] | > 10 µM | > 10 µM | −26% | 23% | 0.0025 ± 0.00086 µM | 1.5 | 0.00165 ± 0.00026 µM | > 10 µM | > 10 µM | 38% | −5% | – | – | –
4 | CCCCCn1nc(C(=O)Nc2cccc3cccnc23)c2ccccc21 [Compound 10, THJ] | > 10 µM | > 10 µM | 4% | 30% | 0.0127 ± 0.0041 µM | – | 0.103 ± 0.025 µM | > 10 µM | > 10 µM | 11% | 50% | 8.1 | 14 fold | –
5 | O=C(Nc1cccc2cccnc12)c1nn(CCCCCF)c2ccccc12 [Compound 11, 5F-THJ] | > 10 µM | > 10 µM | −17% | 44% | 0.00275 ± 0.00099 µM | – | 0.0226 ± 0.0075 µM | > 10 µM | > 10 µM | 28% | – | 8.2 | 27 fold | –
6 | CCCCCn1cc(C(=O)Nc2ccccc2)c2ccccc21 [Compound 14, SDB-006-N-phenyl-analog] | > 10 µM | > 10 µM | 9% | −13% | 0.275 ± 0.025 µM | – | 0.163 ± 0.017 µM | > 10 µM | > 10 µM | 20% | 1% | – | – | –
7 | O=C(NC12CC3CC(CC(C3)C1)C2)c1nn(CCCCCF)c2ccccc12 [Compound 17, 5F-APINACA (5F-AKB48)] | – | – | – | – | 0.000266 ± 4.1e-05 µM | – | 0.00194 ± 0.00055 µM | – | – | – | – | 7.3 | – | activated CB1 receptor more efficaciously than CB2
8 | O=C(NC12CC3CC(CC(C3)C1)C2)c1nn(Cc2ccc(F)cc2)c2ccccc12 [Compound 18, N-((3s,5s,7s)-Adamantan-1-yl)-1-(4-fluorobenzyl)-1H-indazole-3-carboxamide] | > 10 µM | – | −27% | (69 %) | 0.000174 ± 1.8e-05 µM | – | 0.00106 ± 0.00029 µM | > 10 µM | – | −11% | (83 %) | 6.1 | – | –
9 | O=C(Oc1cccc2ccccc12)c1cn(Cc2ccc(F)cc2)c2ccccc12 [Compound 20, FDU-PB-22] | > 10 µM | > 10 µM | 30% | −4% | 0.00243 ± 0.00092 µM | 2.0 | 0.00119 ± 0.00039 µM | > 10 µM | > 10 µM | 11% | 30% | – | – | –
10 | O=C(Oc1cccc2cccnc12)c1cn(CCCCCF)c2ccccc12 [Compound 25, 5F-PB-22] | > 10 µM | > 10 µM | −5% | −5% | 0.000633 ± 5.8e-05 µM | 1.4 | 0.000468 ± 6.9e-05 µM | > 10 µM | > 10 µM | 5% | -10% | – | – | –
11 | O=C(Oc1cccc2cccnc12)c1cn(Cc2ccc(F)cc2)c2ccccc12 [Compound 26, FUB-PB-22] | > 10 µM | > 10 µM | 15% | 8% | 0.000478 ± 0.000124 µM | 1.2 | 0.000386 ± 0.000117 µM | > 10 µM | > 10 µM | 5% | 24% | – | – | –
12 | CCCCCn1nc(C(=O)c2cccc3ccccc23)c2ccccc21 [Compound 28, THJ018] | > 10 µM | > 10 µM | 33% | −5% | 0.00457 ± 0.00028 µM | – | 0.00584 ± 0.00132 µM | > 10 µM | 8.2 ± 2.11 µM | 6% | – | 1.3 | – | –
13 | O=C(c1cccc2ccccc12)c1nn(CCCCCF)c2ccccc12 [Compound 29, THJ2201] | > 10 µM | > 10 µM | 18% | 21% | 0.00132 ± 0.00039 µM | 1.0 | 0.00134 ± 0.00054 µM | > 10 µM | > 10 µM | −1% | 47% | 1.0 | – | –
14 | Cc1ccc(C(=O)c2cn(CCCCCF)c3ccccc23)c2ccccc12 [Compound 30, MAM-2201] | – | – | – | – | 0.000582 ± 0.000123 µM | – | 0.00158 ± 0.00076 µM | – | – | – | – | 2.7 | – | –
15 | Cc1ccc(C(=O)c2cn(CCCC(C)F)c3ccccc23)c2ccccc12 (stereo not drawn) [Compound 32, MAM-2201-4-fluoropentyl-isomer] | – | – | – | – | 0.000808 ± 5.7e-05 µM | – | 0.00323 ± 0.00156 µM | > 10 µM | 3.07 ± 1.48 µM | −41% | – | 4.0 | – | –
16 | CCCCCn1cc(C(=O)c2ccccc2OC)c2ccccc21 [Compound 33, RCS-4] | – | – | – | – | 0.00286 ± 0.00039 µM | – | 0.0266 ± 0.0066 µM | – | – | – | – | 9.3 | – | –
17 | COc1ccccc1CC(=O)c1cn(CCC2CCCCC2)c2ccccc12 [Compound 34, RCS-8] | – | – | – | – | 0.0146 ± 0.0061 µM | – | 0.0813 ± 0.0158 µM | – | – | – | – | 5.6 | – | –
18 | O=C(c1cn(CCCCCF)c2ccccc12)C12CC3CC(CC(C3)C1)C2 [Compound 36, 5F-AB001] | > 10 µM | ~10 µM | −6% | – | 0.00147 ± 0.00103 µM | – | 0.0123 ± 0.003 µM | > 10 µM | ~10 µM | 19% | 48% | 8.4 | – | –
19 | CCCC(F)Cn1cc(C(=O)C2C(C)(C)C2(C)C)c2ccccc21 (stereo not drawn) [Compound 39, XLR-11-2-fluoropentyl-isomer] | > 10 µM | > 10 µM | 24% | 29% | 0.00183 ± 0.00047 µM | – | 0.0595 ± 0.0169 µM | > 10 µM | 5.69 ± 1.95 µM | −8% | – | 32.5 | – | –
20 | CC1(C)C(C(=O)c2nn(CCCCCF)c3ccccc23)C1(C)C [Compound 40, FAB-144] | > 10 µM | ~10 µM | 2% | 57% | 0.00045 ± 0.000111 µM | – | 0.0175 ± 0.0011 µM | > 10 µM | ~10 µM | 5% | 77% | 38.9 | – | –
21 | CC1(C)C(C(=O)c2cn(Cc3ccc(F)cc3)c3ccccc23)C1(C)C [Compound 42, FUB-144] | > 10 µM | ~10 µM | −12% | 74% | 0.000846 ± 0.000209 µM | – | 0.014 ± 0.0027 µM | > 10 µM | ~10 µM | −3% | 62% | 16.5 | – | –
22 | Cc1c(C(=O)C2C(C)(C)C2(C)C)c2ccccc2n1CCCCCF [Compound 47, M-144] | > 10 µM | ~10 µM | −7% | 67% | 0.00459 ± 0.00148 µM | – | 0.0194 ± 0.0078 µM | > 10 µM | ~10 µM | −5% | 86% | 4.2 | – | –
